The compounds below were run on human FXN (assay: EC50 assay: FXN mRNA expression by qRT-PCR in GM15850 cells after 48 hrs compound treatment). Settings: Homo sapiens, 48 hrs incubation, hFXN expression normalized to hGAPDH (qRT-PCR), read-out: EC50 WT (nM, 48 hr).
Assay type: cell-based
Summary of the method: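 FXN transcript, normalized to GAPDH by TaqMan qRT-PCR, read out after 48 hrs of compound on GM15850 cells plated at 150,000 per well. Dosing used five 3-fold steps from 150 nM final, vehicle 0.01% DMSO.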
`Cc1cc(F)cc(C)c1Oc1ccc(C(C)(C)O)cc1-c1cn(C)c(=O)c2[nH]c(C(=O)Nc3ccc(OCCOCCOCCOCCOCCOCCOCCOCCOCCNC(=O)CCNC(=O)c4nc(NC(=O)CCNC(=O)c5cc(NC(=O)c6nc(NC(=O)CCNC(=O)c7cc(NC(=O)c8nccn8C)c[nH]7)cn6C)c[nH]5)cn4C)cc3)cc12` [Compound 224, N-(5-{[2-({2-[(2-{[26-(4-{4-[2-(4-fluoro-2,6-dimethylphenoxy)-5-(2-hydroxypropan-2-yl)phenyl]-6-methyl-7-oxo-1H-pyrrolo[2,3-c]pyridine-2-amido}phenoxy)-3,6,9,12,15,18,21,24-octaoxahexacosan-1-yl]carbamoyl]ethyl)carbamoyl]-1-methylimidazol-4-yl]carbamoyl)ethyl]carbamoyl]-1H-pyrrol-3-yl)-1-methyl-4-(3-{[4-(1-methylimidazole-2-amido)-1H-pyrrol-2-yl]formamido]propanamido)imidazole-2-carboxamide] showed an EC50 of less than 100 nM.
`Cc1sc2c(c1C)C(c1ccc(Cl)cc1)=N[C@@H](CC(=O)Nc1ccc(OCCOCCOCCOCCOCCOCCOCCOCCOCCNC(=O)CCNC(=O)CCNC(=O)c3nc(NC(=O)CCNC(=O)c4cc(NC(=O)c5nc(NC(=O)CCNC(=O)c6cc(NC(=O)c7nccn7C)cn6C)cn5C)cn4C)cn3C)cc1)c1nnc(C)n1-2` [Compound 229] gave an EC50 of less than 100 nM.
For `Cc1sc2c(c1C)C(c1ccc(Cl)cc1)=N[C@H](CC(=O)Nc1ccc(OCCOCCOCCOCCOCCOCCOCCOCCOCCNC(=O)CCNC(=O)c3nc(NC(=O)CCNC(=O)c4cc(NC(=O)c5nc(NC(=O)CCNC(=O)c6cc(NC(=O)c7nccn7C)cn6C)cn5C)cn4C)cn3C)cc1)c1nnc(C)n1-2` [Compound 231], the EC50 was less than 100 nM.
In the case of `Cc1cc(F)cc(C)c1Oc1ccc(C(C)(C)O)cc1-c1cn(C)c(=O)c2[nH]c(C(=O)Nc3ccc(OCCOCCOCCOCCOCCOCCOCCOCCOCCNC(=O)CCNC(=O)c4nc(NC(=O)CCNC(=O)c5cc(NC(=O)c6nc(NC(=O)CCNC(=O)c7cc(NC(=O)c8nccn8C)cn7C)cn6C)cn5C)cn4C)c(OC(=O)c4cc5c(-c6cc(C(C)(C)O)ccc6Oc6c(C)cc(F)cc6C)cn(C)c(=O)c5[nH]4)c3)cc12` [Compound 240], the EC50 is reported as less than 100 nM.
`COCCOCCOCCOCCN(CCCCCn1cc(NC(=O)c2nc(NC(=O)CCNC(=O)c3cc(NC(=O)c4nccn4C)cn3C)cn2C)cc1C(=O)NCCC(=O)Nc1cn(C)c(C(=O)NCCC(=O)NCCOCCOCCOCCOCCOCCOCCOCCOCCOc2ccc(NC(=O)c3cc4c(-c5cc(C(C)(C)O)ccc5Oc5c(C)cc(F)cc5C)cn(C)c(=O)c4[nH]3)cc2)n1)CCOCCOCCOCCOC` [Compound 241] was tested, and the EC50 was greater than 500 nM.
Compound `COCCOCCOCCOCCOCCOCCOCCOCCN(CCCCCn1cc(NC(=O)c2nc(NC(=O)CCNC(=O)c3cc(NC(=O)c4nccn4C)cn3C)cn2C)cc1C(=O)NCCC(=O)Nc1cn(C)c(C(=O)NCCC(=O)NCCOCCOCCOCCOCCOCCOCCOCCOCCOc2ccc(NC(=O)c3cc4c(-c5cc(C(C)(C)O)ccc5Oc5c(C)cc(F)cc5C)cn(C)c(=O)c4[nH]3)cc2)n1)CCOCCOCCOCCOCCOCCOCCOCCOC` [Compound 242] has an EC50 of less than 100 nM.

From patent publication US20240124491A1, “METHODS AND COMPOUNDS FOR TREATING FRIEDREICH'S ATAXIA” (Design Therapeutics, Inc., priority 2021, published 2024)
